# From US20060167076A1, “Acutumine and acutumine compounds synthesis and use” (priority 2002, published 2006)
# Experiments:
# [1] = tested on: scopolamine-induced memory impairments; assay: Morris water maze test with scopolamine as amnesic agent; type: in vivo, mouse; details: 60 mg/kg p.o.; scopolamine 5 mg/kg i.p.; control animals 43 seconds
# Source text: The anti-amnesic effects of the compounds of the present invention have been evaluated using the Morris water maze test (Morris et al., Nature, 1986, 319, 774-776) in the mouse and scopolamine as amnesic agent. Kumming strain mice (18-24 g, Shanghai Experimental Animal Centre) of either sex were used. Mice were placed on the water maze (80×50×20 cm) and trained to find the platform. Following the period of one day's habituation, each mouse received 3 daily training sessions for seven days. Mice were trained to a criterion of finding the platform within 20 seconds and with <2 errors of entering a dead-end. Once a mouse met the criterion, training was reduced to one daily session until all mice met the criterion. Trained mice were randomly assigned to sub-groups. Compounds under study were dissolved in distilled water and administered by the oral route 40 minutes before behavioural testing. Scopolamine (5 mg/kg, i.p.) was injected 30 minutes before the test. The number of errors and the time for reaching the platform were recorded. Data were expressed as means±s.e.m. Statistical analysis was performed using ANOVA followed by Duncan's multiple-range test.
# [2] = tested on: animal experimental models; assay: Mnemocognition in animal experimental models (unspecified); type: in vivo
# Wistar rat [3] = assay: Object recognition in the Wistar rat; type: in vivo; details: 10 mg/kg; second session 24 hours later
# Source text: The object recognition test in the Wistar rat was initially developed by ENNACEUR and DELACOUR (Behav. Brain Res., 1988, 31, 47-59). The test is based on the spontaneous exploratory activity of the animal and has the characteristics of episodic memory in humans. This memory test is sensitive to ageing (SCALI et al., Eur. J. Pharmacol., 1997, 325, 173-180) and to cholinergic dysfunctions (BARTOLINI et al., Pharm. Biochem. Behav. 1996, 53(2), 277-283) and is based on the differences in the exploration of 2 objects of fairly similar shape—one familiar, the other new. Prior to the test, the animals are habituated to the environment (an enclosure without an object). In the course of a first session, the rats are placed (3 minutes) in the enclosure, in which there are 2 identical objects. The duration of exploration is measured for each object. In the course of the second session (3 minutes), 24 hours later, 1 of the 2 objects is replaced by a new object. The duration of exploration is measured for each object. The assessment criterion is the difference, Delta, expressed in seconds, between the exploration times for the new object and for the familiar object in the course of the second session.
# Wistar rat [4] = assay: Social recognition in the Wistar rat; type: in vivo; details: 20 mg/kg; second encounter after 2 hours
# Source text: Initially described in 1982 by THOR and HOLLOWAY (J. Comp. Physiol., 1982, 29 1000-1006), the social recognition test has subsequently been proposed by various authors (DANTZER et al., Psychopharmacology, 1987, 91, 363-368; PERIO et al., Psychopharmacology, 1989, 97, 262-268) for studying the mnemocognitive effects of new compounds. The test is based on the natural expression of the olfactory memory of the rat and its natural tendency to forget and allows evaluation of memorisation, by recognition of a young congeneric animal, by an adult rat. A young rat (21 days), taken at random, is placed for 5 minutes in the cage housing an adult rat. With the aid of a video device, the experimenter observes the social recognition behaviour of the adult rat and measures its overall duration. The young rat is then removed from the adult rat's cage and is placed in its own cage until the second introduction. The adult rat is given the compound under test and, after 2 hours, is again brought into the presence (5 minutes) of the young rat. The social recognition behaviour is then observed again and its duration measured. The assessment criterion is the difference (T2−T1), expressed in seconds, between the “recognition” times of the 2 encounters.
compound,measurement,setting,value
"CCC(=O)OC1C(OC)=CC(=O)[C@]12[C@@H](Cl)CC13C(OC)=C(OC)C(=O)CC12CCN3C (stereo partly drawn) [Example 1, Spiro[(4S,5S)-4-(ethoxycarbonyl)-3-methoxy-2-cyclopenten-1-one-5:3(2S)-2-chloro-3aS,7aS-((2,3)-1-methylpyrrolidine)-6,7-dimethoxy-1,2,3,3a,4,7a-hexahydro-5H-inden-5-one]]",time for reaching the platform,[1],≤ 18 s
COC1=CC(=O)C2(C1O)[C@@H](Cl)CC13C(OC)=C(OC)C(=O)CC21CCN3C (stereo partly shown) [acutumine],mnemocognition-facilitating properties,[2],mnemocognition-facilitating properties
"Spiro[(4S,5S)-4-hydroxy-3-methoxy-2-cyclopenten-1-one-5:3(2S)-2-chloro-3aS,7aS-((2,3)-1-methylpyrrolidine)-6,7-dimethoxy-1,2,3,3a,4,7a-hexahydro-5H-inden-5-one oxime] [Example 4]","difference, Delta, between exploration times for the new and the familiar object",Wistar rat [3],8 s
same,difference (T2−T1) between recognition times of the 2 encounters,Wistar rat [4],-45 s
